# Assay results as given in ChEMBL document CHEMBL1148857, “In vitro and in vivo profile of 5-[(4'-trifluoromethyl-biphenyl-2-carbonyl)-amino]-1H-indole-2-carboxylic acid benzylmethyl carbamoylamide (dirlotapide), a novel potent MTP inhibitor for obesity” (Bioorg Med Chem Lett, 2007).
# Activity calls are given as the source filed them. The rule behind the calls is not given here.
# Assays:
# [1] = Cmax in Beagle dog at 5 mg/kg, po; format: ADME, organism-based, Canis lupus familiaris; design: dose 5 mg/kg, route oral; settings: in vivo
# [2] = Intrinsic clearance in dog microsomes; format: ADME, Canis lupus familiaris, Liver, Microsome
# [3] = target: Type-1 angiotensin II receptor (Homo sapiens) (UniProt P30556); experiment: Inhibition of AT1 receptor at 1 uM
# [4] = target: Cytochrome P450 2C9 (Homo sapiens, UniProt P11712); experiment: Inhibition of CYP2C9; format: ADME
# [5] = target: Microsomal triglyceride transfer protein large subunit (Homo sapiens, UniProt P55157); experiment: Inhibition of MTP assessed as inhibition of apoB secretion from human HepG2 cells; format: cell-based
# [6] = Volume of distribution at steady state in rat at 5 mg/kg, iv; format: ADME, organism-based; design: dose 5 mg/kg, route intravenous; settings: in vivo, read-out: Vdss
# [7] = species on record: Homo sapiens; experiment: Inhibition of muscle nicotinic receptor at 1 uM
# [8] = target: D(4) dopamine receptor (Homo sapiens) (UniProt P21917); experiment: Inhibition of dopamine D4 receptor at 1 uM
# [9] = Plasma clearance in rat at 1 mg/kg, iv; format: ADME, organism-based; design: dose 1 mg/kg, route intravenous
# [10] = Half life in rat at 3 mg/kg, po; format: ADME, organism-based; design: dose 3 mg/kg, route oral; settings: in vivo
# [11] = species on record: Mus musculus; experiment: Inhibition of hepatic MTP in mouse assessed as reduction of triglyceride; format: functional
# [12] = target: Beta-2 adrenergic receptor (Homo sapiens) (UniProt P07550); experiment: Inhibition of adrenergic b2 receptor at 1 uM
# [13] = Volume of distribution at steady state in Beagle dog at 1 mg/kg, iv; format: ADME, organism-based, Canis lupus familiaris; design: dose 1 mg/kg, route intravenous; settings: in vivo, read-out: Vdss
# [14] = target: Cytochrome P450 3A4 (Homo sapiens, UniProt P08684); experiment: Inhibition of CYP3A4; format: ADME
# [15] = AUC (0 to t) in rat at 1 mg/kg, iv; format: ADME, organism-based; design: dose 1 mg/kg, route intravenous; settings: plasma
# [16] = Cmax in rat at 30 mg/kg, po after 2.8 hrs; format: ADME, organism-based; design: dose 30 mg/kg, route oral; settings: in vivo
# [17] = Cmax in Beagle dog at 0.5 mg/kg, po; format: ADME, organism-based, Canis lupus familiaris; design: dose 0.5 mg/kg, route oral; settings: in vivo
# [18] = Volume of distribution at steady state in rat at 0.3 mg/kg, iv; format: ADME, organism-based; design: dose 0.3 mg/kg, route intravenous; settings: in vivo, read-out: Vdss
# [19] = Intrinsic clearance in monkey microsomes; format: ADME, Macaca mulatta, Microsome; settings: rhesus monkey
# [20] = target: Adenosine receptor A1 (Homo sapiens) (UniProt P30542); experiment: Inhibition of adenosine A1 receptor at 1 uM
# Chain of Adenosine receptor A1 (Homo sapiens) (P30542 whole entry): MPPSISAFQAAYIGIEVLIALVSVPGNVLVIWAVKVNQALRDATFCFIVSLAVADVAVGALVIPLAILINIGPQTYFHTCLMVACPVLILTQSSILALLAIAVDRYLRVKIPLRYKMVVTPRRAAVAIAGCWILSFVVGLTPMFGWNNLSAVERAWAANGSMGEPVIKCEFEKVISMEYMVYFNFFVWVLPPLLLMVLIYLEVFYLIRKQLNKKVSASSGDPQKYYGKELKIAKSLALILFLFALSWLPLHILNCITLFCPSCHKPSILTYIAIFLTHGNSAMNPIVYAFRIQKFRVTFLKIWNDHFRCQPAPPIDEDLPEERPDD
# Chain of Microsomal triglyceride transfer protein large subunit (P55157 whole entry): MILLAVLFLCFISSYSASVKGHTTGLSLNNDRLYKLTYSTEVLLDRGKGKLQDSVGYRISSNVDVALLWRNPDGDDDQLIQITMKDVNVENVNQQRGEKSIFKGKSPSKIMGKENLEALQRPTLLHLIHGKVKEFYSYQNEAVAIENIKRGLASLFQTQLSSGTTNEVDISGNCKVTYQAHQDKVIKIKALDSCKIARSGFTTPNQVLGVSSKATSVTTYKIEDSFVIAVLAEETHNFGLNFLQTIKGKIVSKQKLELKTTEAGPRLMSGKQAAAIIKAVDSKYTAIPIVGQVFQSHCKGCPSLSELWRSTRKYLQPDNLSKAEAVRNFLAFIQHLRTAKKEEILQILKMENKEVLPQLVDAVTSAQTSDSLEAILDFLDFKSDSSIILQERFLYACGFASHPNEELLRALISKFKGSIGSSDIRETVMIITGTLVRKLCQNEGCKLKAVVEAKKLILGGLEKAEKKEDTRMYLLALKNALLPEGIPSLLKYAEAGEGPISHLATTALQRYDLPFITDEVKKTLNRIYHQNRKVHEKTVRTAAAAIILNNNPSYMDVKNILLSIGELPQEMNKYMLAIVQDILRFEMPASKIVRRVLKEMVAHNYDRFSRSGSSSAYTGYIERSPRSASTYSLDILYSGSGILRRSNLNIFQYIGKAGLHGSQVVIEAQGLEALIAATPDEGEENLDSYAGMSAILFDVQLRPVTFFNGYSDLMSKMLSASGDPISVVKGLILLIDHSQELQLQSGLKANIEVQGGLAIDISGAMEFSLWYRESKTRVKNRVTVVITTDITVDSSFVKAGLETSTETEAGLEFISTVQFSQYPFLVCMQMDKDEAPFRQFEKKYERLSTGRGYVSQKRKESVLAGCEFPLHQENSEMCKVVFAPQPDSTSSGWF
# Chain of Type-1 angiotensin II receptor (Homo sapiens) (P30556 whole entry): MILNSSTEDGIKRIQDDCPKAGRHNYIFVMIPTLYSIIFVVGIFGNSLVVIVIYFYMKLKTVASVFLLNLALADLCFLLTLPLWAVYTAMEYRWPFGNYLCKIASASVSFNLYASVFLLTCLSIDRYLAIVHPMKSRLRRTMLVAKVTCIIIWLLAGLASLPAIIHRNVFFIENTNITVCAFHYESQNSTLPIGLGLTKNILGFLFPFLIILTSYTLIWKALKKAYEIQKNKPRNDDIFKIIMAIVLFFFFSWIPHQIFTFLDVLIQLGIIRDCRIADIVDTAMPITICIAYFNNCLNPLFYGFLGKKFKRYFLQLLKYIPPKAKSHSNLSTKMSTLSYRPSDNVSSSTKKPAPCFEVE
# Chain of Beta-2 adrenergic receptor (Homo sapiens) (P07550 whole entry, looked up): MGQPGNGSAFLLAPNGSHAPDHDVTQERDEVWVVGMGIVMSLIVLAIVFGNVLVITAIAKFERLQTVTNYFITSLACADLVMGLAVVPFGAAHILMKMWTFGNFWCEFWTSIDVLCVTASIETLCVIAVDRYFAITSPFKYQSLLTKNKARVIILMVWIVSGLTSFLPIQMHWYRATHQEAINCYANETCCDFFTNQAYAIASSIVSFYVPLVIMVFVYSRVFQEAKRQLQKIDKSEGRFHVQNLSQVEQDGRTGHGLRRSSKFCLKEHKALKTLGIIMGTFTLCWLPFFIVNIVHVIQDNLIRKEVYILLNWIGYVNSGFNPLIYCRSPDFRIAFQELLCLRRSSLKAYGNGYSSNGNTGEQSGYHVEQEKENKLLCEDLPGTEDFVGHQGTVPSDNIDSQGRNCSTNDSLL
# Chain of Cytochrome P450 2C9 (P11712 whole entry): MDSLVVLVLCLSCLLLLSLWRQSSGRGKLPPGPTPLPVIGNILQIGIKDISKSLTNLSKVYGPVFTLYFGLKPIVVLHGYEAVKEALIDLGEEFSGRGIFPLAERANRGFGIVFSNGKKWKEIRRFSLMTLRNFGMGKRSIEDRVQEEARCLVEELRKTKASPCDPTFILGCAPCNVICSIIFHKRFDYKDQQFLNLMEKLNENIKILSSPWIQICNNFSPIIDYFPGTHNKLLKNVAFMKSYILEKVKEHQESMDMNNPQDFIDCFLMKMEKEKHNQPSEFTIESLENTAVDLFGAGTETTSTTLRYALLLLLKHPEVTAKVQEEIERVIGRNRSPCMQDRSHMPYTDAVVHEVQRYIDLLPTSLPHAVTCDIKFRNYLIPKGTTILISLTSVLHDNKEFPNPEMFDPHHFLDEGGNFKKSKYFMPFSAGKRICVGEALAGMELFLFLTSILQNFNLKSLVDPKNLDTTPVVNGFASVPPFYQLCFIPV
# Chain of Cytochrome P450 3A4 (P08684 whole entry): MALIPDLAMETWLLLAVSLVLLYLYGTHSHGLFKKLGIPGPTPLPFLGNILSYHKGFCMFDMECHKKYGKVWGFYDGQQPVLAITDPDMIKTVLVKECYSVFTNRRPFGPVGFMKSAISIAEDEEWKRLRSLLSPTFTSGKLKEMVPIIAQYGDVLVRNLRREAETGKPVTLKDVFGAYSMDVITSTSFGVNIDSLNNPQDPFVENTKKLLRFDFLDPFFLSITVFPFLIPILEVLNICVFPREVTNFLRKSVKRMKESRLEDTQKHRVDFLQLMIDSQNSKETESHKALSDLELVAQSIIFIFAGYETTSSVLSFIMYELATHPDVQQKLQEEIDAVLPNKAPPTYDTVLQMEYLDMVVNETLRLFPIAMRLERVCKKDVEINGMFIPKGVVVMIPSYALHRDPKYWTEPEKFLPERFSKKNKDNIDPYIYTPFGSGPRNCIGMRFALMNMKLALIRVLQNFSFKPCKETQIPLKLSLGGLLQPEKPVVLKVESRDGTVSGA
# Chain of D(4) dopamine receptor (Homo sapiens) (P21917 whole entry): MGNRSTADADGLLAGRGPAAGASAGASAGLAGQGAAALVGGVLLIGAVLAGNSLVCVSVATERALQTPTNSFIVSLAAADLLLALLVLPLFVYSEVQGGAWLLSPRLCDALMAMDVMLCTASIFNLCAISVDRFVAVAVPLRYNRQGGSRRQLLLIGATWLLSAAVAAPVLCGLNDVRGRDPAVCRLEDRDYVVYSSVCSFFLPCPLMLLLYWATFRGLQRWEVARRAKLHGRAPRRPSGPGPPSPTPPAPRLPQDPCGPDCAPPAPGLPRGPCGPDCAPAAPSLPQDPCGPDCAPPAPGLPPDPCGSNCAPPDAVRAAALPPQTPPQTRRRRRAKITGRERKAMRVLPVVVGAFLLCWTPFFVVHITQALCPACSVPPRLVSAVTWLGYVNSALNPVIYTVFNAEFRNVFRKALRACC
compound,measurement,setting,value
CN(Cc1ccccc1)C(=O)[C@@H](NC(=O)c1cc2cc(NC(=O)c3ccccc3-c3ccc(C(F)(F)F)cc3)ccc2n1C)c1ccccc1 [DIRLOTAPIDE],Cmax,[1],250 ng/mL
same,CLint scaled,[2],1090 mL/min/kg
same,Activity,[3],inactive
same,IC50,[4],> 30 µM
same,IC50,[5],2.9 nM
same,Vd,[6],3.3 L/kg
same,Activity,[7],inactive
same,Activity,[8],inactive
same,clearance,[9],37 mL/min/kg
same,half-life,[10],378 min
same,ED25,[11],6 mg/kg
same,Activity,[12],inactive
same,Vd,[13],1 L/kg
same,IC50,[14],> 30 µM
same,AUC(0-t),[15],485 ng·h/mL
same,Cmax,[16],21 ng/mL
same,Cmax,[17],31.1 ng/mL
same,Vd,[18],11 L/kg
same,CLint scaled,[19],835 mL/min/kg
same,Activity,[20],inactive
